The values below come from patent US20250064945A1 (Arvinas Operations, Inc., priority 2021, published 2025).

Where a name gives a salt, the structure may show the parent alone. Bounds are passed on as bounds.

The target of one experiment is T1, BRM (Homo sapiens, UniProt P51531).
T1 construct: In-Cell Western Screen of BRM Degradation in SW1573 Cells; endogenous in cells; host or cells: SW1573 cells
The experiment can be described thus: Western blot / In-Cell Western screen of BRM degradation in SW1573 cells. The following applies: overnight (18-20 hours) treatment. Type of experiment: cell-based. In short, it runs like this: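 SW1573 cells treated overnight (18-20 hours) with compound at 0.1% final DMSO. BRM measured either by Western blot of RIPA lysates with alpha-tubulin control and chemiluminescent detection, or by In-Cell Western on fixed, permeabilized cells with LI-COR dual-channel read against alpha-tubulin; Dmax and DC50 derived.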
For orientation: A western blot detects proteins with antibodies after separation by electrophoresis.
For `CC(C)[C@@H](C(=O)N1C[C@H](O)C[C@H]1C(=O)N[C@@H](C)c1ccc(C#N)cc1)c1cc(OCCN2CCN(CCOc3cc(N4CCN(c5cc(-c6ccccc6O)nnc5N)CC45COC5)ccn3)CC2)no1` [Compound 19, (2S,4R)-1-[(2R)-2-{3-[2-(4-{2-[(4-{8-[3-amino-6-(2-hydroxyphenyl)pyridazin-4-yl]-2-oxa-5,8-diazaspiro[3.5]nonan-5-yl}pyridin-2-yl)oxy]ethyl}piperazin-1-yl)ethoxy]-1,2-oxazol-5-yl}-3-methylbutanoyl]-N-[(1S)-1-(4-cyanophenyl)ethyl]-4-hydroxypyrrolidine-2-carboxamide], the DC50 (in general, the concentration giving 50% degradation) is 2.5 to 10 nM.

With `Cc1ncsc1-c1ccc([C@H](C)NC(=O)[C@@H]2C[C@@H](O)CN2C(=O)[C@H](c2cc(OCCCC#Cc3cn4cc(-c5ccccc5O)nc4nc3N)no2)C(C)C)cc1` [Compound 30, (2S,4R)-1-[(2S)-2-[3-({5-[7-amino-2-(2-hydroxyphenyl)imidazo[1,2-a]pyrimidin-6-yl]pent-4-yn-1-yl}oxy)-1,2-oxazol-5-yl]-3-methylbutanoyl]-4-hydroxy-N-[(1S)-1-[4-(4-methyl-1,3-thiazol-5-yl)phenyl]ethyl]pyrrolidine-2-carboxamide], the DC50 is no less than 30 nM.

Compound `Cc1ncsc1-c1ccc([C@H](C)NC(=O)[C@@H]2C[C@@H](O)CN2C(=O)[C@@H](c2cc(OCCN3CCN(CCOc4cc(N5CCN(c6cc(-c7ccccc7O)nnc6N)CC56COC6)ccn4)CC3)no2)C(C)C)cn1` [Compound 17, (2S,4R)-1-[(2R)-2-{3-[2-(4-{2-[(4-{8-[3-amino-6-(2-hydroxyphenyl)pyridazin-4-yl]-2-oxa-5,8-diazaspiro[3.5]nonan-5-yl}pyridin-2-yl)oxy]ethyl}piperazin-1-yl)ethoxy]-1,2-oxazol-5-yl}-3-methylbutanoyl]-4-hydroxy-N-[(1S)-1-[6-(4-methyl-1,3-thiazol-5-yl)pyridin-3-yl]ethyl]pyrrolidine-2-carboxamide] displayed a half-maximal degradation concentration (DC50) of 2.5 to 10 nM.

Consider `CC(C)[C@@H](C(=O)N1C[C@H](O)C[C@H]1C(=O)N[C@@H](C)c1ccc(-c2ccnn2C)cc1)c1cc(OCCN2CCN(Cc3ccc(C/C=C/c4cn5cc(-c6ccccc6O)nc5nc4N)cc3)CC2)no1` [Compound 46, (2S,4R)-1-[(2R)-2-(3-{2-[4-({4-[(2E)-3-[7-amino-2-(2-hydroxyphenyl)imidazo[1,2-a]pyrimidin-6-yl]prop-2-en-1-yl]phenyl}methyl)piperazin-1-yl]ethoxy}-1,2-oxazol-5-yl)-3-methylbutanoyl]-4-hydroxy-N-[(1S)-1-[4-(1-methyl-1H-pyrazol-5-yl)phenyl]ethyl]pyrrolidine-2-carboxamide], for which the DC50 lay in the range of 2.5 to 10 nM.

As for `Cc1nccn1-c1ccc([C@H](C)NC(=O)[C@@H]2C[C@@H](O)CN2C(=O)[C@@H](c2cc(OCCN3CCN(CCOc4cc(N5CCN(c6cc(-c7ccccc7O)nnc6N)CC56COC6)ccn4)CC3)no2)C(C)C)cc1` [Compound 20, (2S,4R)-1-[(2R)-2-{3-[2-(4-{2-[(4-{8-[3-amino-6-(2-hydroxyphenyl)pyridazin-4-yl]-2-oxa-5,8-diazaspiro[3.5]nonan-5-yl}pyridin-2-yl)oxy]ethyl}piperazin-1-yl)ethoxy]-1,2-oxazol-5-yl}-3-methylbutanoyl]-4-hydroxy-N-[(1S)-1-[4-(2-methyl-1H-imidazol-1-yl)phenyl]ethyl]pyrrolidine-2-carboxamide], the DC50 was 2.5 to 10 nM.

Regarding `Cc1ncsc1-c1ccc([C@H](C)NC(=O)[C@@H]2C[C@@H](O)CN2C(=O)[C@@H](c2cc(N3CCC(CN4CCC5(CC4)CC(N4CCO[C@@H](CN6CC7(CCN(c8cc(-c9ccccc9O)nnc8N)CC7)C6)C4)C5)CC3)no2)C(C)C)cc1` [Compound 18, (2S,4R)-1-[(2R)-2-{3-[4-({2-[(2S)-2-({7-[3-amino-6-(2-hydroxyphenyl)pyridazin-4-yl]-2,7-diazaspiro[3.5]nonan-2-yl}methyl)morpholin-4-yl]-7-azaspiro[3.5]nonan-7-yl}methyl)piperidin-1-yl]-1,2-oxazol-5-yl}-3-methylbutanoyl]-4-hydroxy-N-[(1S)-1-[4-(4-methyl-1,3-thiazol-5-yl)phenyl]ethyl]pyrrolidine-2-carboxamide], the DC50 lay in the range of 10 to 30 nM.

The experiment is the same for the next values; noted with them: overnight (18-20 hours) treatment, read-out: Dmax (%) (% degraded).
For `CC(C)[C@@H](C(=O)N1C[C@H](O)C[C@H]1C(=O)N[C@@H](C)c1ccc(C#N)cc1)c1cc(OCCN2CCN(CCOc3cc(N4CCN(c5cc(-c6ccccc6O)nnc5N)CC45COC5)ccn3)CC2)no1` [Compound 19, (2S,4R)-1-[(2R)-2-{3-[2-(4-{2-[(4-{8-[3-amino-6-(2-hydroxyphenyl)pyridazin-4-yl]-2-oxa-5,8-diazaspiro[3.5]nonan-5-yl}pyridin-2-yl)oxy]ethyl}piperazin-1-yl)ethoxy]-1,2-oxazol-5-yl}-3-methylbutanoyl]-N-[(1S)-1-(4-cyanophenyl)ethyl]-4-hydroxypyrrolidine-2-carboxamide], the greatest degradation seen (Dmax) (commonly the largest share of the target that was removed) is greater than 75%.

`Cc1ncsc1-c1ccc([C@H](C)NC(=O)[C@@H]2C[C@@H](O)CN2C(=O)[C@@H](c2cc(OCCN3CCN(CCOc4cc(N5CCN(c6cc(-c7ccccc7O)nnc6N)CC56COC6)ccn4)CC3)no2)C(C)C)cn1` [Compound 17, (2S,4R)-1-[(2R)-2-{3-[2-(4-{2-[(4-{8-[3-amino-6-(2-hydroxyphenyl)pyridazin-4-yl]-2-oxa-5,8-diazaspiro[3.5]nonan-5-yl}pyridin-2-yl)oxy]ethyl}piperazin-1-yl)ethoxy]-1,2-oxazol-5-yl}-3-methylbutanoyl]-4-hydroxy-N-[(1S)-1-[6-(4-methyl-1,3-thiazol-5-yl)pyridin-3-yl]ethyl]pyrrolidine-2-carboxamide]: the maximal degradation (Dmax) is greater than 75%.

Regarding `CC(C)[C@@H](C(=O)N1C[C@H](O)C[C@H]1C(=O)N[C@@H](C)c1ccc(-c2ccnn2C)cc1)c1cc(OCCN2CCN(Cc3ccc(C/C=C/c4cn5cc(-c6ccccc6O)nc5nc4N)cc3)CC2)no1` [Compound 46, (2S,4R)-1-[(2R)-2-(3-{2-[4-({4-[(2E)-3-[7-amino-2-(2-hydroxyphenyl)imidazo[1,2-a]pyrimidin-6-yl]prop-2-en-1-yl]phenyl}methyl)piperazin-1-yl]ethoxy}-1,2-oxazol-5-yl)-3-methylbutanoyl]-4-hydroxy-N-[(1S)-1-[4-(1-methyl-1H-pyrazol-5-yl)phenyl]ethyl]pyrrolidine-2-carboxamide], the Dmax is greater than 75%.

For `Cc1nccn1-c1ccc([C@H](C)NC(=O)[C@@H]2C[C@@H](O)CN2C(=O)[C@@H](c2cc(OCCN3CCN(CCOc4cc(N5CCN(c6cc(-c7ccccc7O)nnc6N)CC56COC6)ccn4)CC3)no2)C(C)C)cc1` [Compound 20, (2S,4R)-1-[(2R)-2-{3-[2-(4-{2-[(4-{8-[3-amino-6-(2-hydroxyphenyl)pyridazin-4-yl]-2-oxa-5,8-diazaspiro[3.5]nonan-5-yl}pyridin-2-yl)oxy]ethyl}piperazin-1-yl)ethoxy]-1,2-oxazol-5-yl}-3-methylbutanoyl]-4-hydroxy-N-[(1S)-1-[4-(2-methyl-1H-imidazol-1-yl)phenyl]ethyl]pyrrolidine-2-carboxamide], the greatest degradation seen (Dmax) is greater than 75%.

Take `Cc1ncsc1-c1ccc([C@H](C)NC(=O)[C@@H]2C[C@@H](O)CN2C(=O)[C@@H](c2cc(N3CCC(CN4CCC5(CC4)CC(N4CCO[C@@H](CN6CC7(CCN(c8cc(-c9ccccc9O)nnc8N)CC7)C6)C4)C5)CC3)no2)C(C)C)cc1` [Compound 18, (2S,4R)-1-[(2R)-2-{3-[4-({2-[(2S)-2-({7-[3-amino-6-(2-hydroxyphenyl)pyridazin-4-yl]-2,7-diazaspiro[3.5]nonan-2-yl}methyl)morpholin-4-yl]-7-azaspiro[3.5]nonan-7-yl}methyl)piperidin-1-yl]-1,2-oxazol-5-yl}-3-methylbutanoyl]-4-hydroxy-N-[(1S)-1-[4-(4-methyl-1,3-thiazol-5-yl)phenyl]ethyl]pyrrolidine-2-carboxamide]: the greatest degradation seen (Dmax) is greater than 75%.

The target in a further experiment is T2, recombinant human 6×His-tagged-BRM (bromodomain-only; aa. 1377-1486) (Homo sapiens, UniProt P51531).
T2 construct: (bromodomain-only; aa; 1377-1486; NP_620614); made in house; host or cells: Escherichia coli
The experiment can be described thus: AlphaLISA competitive BRM binding assay. The following applies: 7 nM 6×His-BRM, 20 nM biotinylated probe. As to the method: AlphaLISA Competitive BRM Binding Assay
Compounds were serially diluted in 100% DMSO in 3-fold increments. An intermediate compound plate was created at 10% DMSO in AlphaLISA buffer (50 mM Hepes, pH 7.5, 50 mM NaCl, […] Brij-35, 0.1 mg/mL BSA) and then […] of compound transferred from the intermediate plate into a white, 384-OptiPlate (Perkin Elmer, #6007290). A solution of protein (recombinant human 6×His-tagged-BRM (bromodomain-only; aa. 1377-1486; NP_620614) expressed in Escherichia coli) and biotinylated probe are mixed and pre-incubated for 10 minutes. Following incubation, […] of protein/probe solution is added to each well of the 384-OptiPlate, resulting in final assay concentration of 7 nM protein (6×His-BRM) and 20 nM biotinylated probe. Compound and protein/probe solution were incubated at room temperature for 10 minutes. […] of anti-His conjugated AlphaLISA acceptor beads (PerkinElmer #AL128M), diluted 100× in AlphaLISA buffer, were added to each well of the assay plate. This addition was followed by a 10-minute incubation at room temperature, in the dark. Lastly, […] of streptavidin donor beads (PerkinElmer #6760002), diluted 100× in AlphaLISA buffer, were added to each well of the assay plate. Final assay plate was incubated for 15 minutes before read, signal is stable up to 4 hours after donor bead addition.
Assay plates were read using an Envision® multimode microplate reader (PerkinElmer #2105-0010) using the Europium/615 nm emission filter. Data is reported as percent displacement, 100% binding is based on the average fluorescent count (FC) of zero compound column and 0% binding is based on the average fluorescent count (FC) of zero protein (His-BRM) column. Percent displacement is calculated based on the following equation:
((100% Binding FC−Compound Well FC)/(100% Binding FC−0% Binding FC))*100
Data is fit using a 4-parameter non-linear regression analysis in GraphPad Prism.
(In Alpha technology, singlet oxygen from a donor bead excites a nearby acceptor bead.)
For `COC/C=C/c1cn2cc(-c3ccccc3O)nc2nc1N` [BRM19, 2-[7-amino-6-[(E)-3-methoxyprop-1-enyl]imidazo [1,2-a]pyrimidin-2-yl]phenol], the equilibrium dissociation constant (Kd) – broadly, the equilibrium constant for the complex coming apart – was less than 500 nM.

For the compound `C#Cc1cc(N)nc2nc(-c3ccccc3O)cn12` [BRM6], the Kd was 2500 to 10000 nM.

Turning to `C#Cc1cn2cc(-c3ccccc3O)nc2nc1N` [BRM3], the Kd was less than 500 nM.

As to `Nc1ccn2cc(-c3ccccc3O)nc2n1` [BRM2], the Kd is less than 500 nM.

Consider `C#Cc1cnc2nc(-c3ccccc3O)cn2c1` [BRM12], for which the dissociation constant Kd was no less than 10000 nM.

With `Cn1cc(-c2cnc3nc(-c4ccccc4O)cn3c2)cn1` [BRM16, 2-[6-(1-methylpyrazol-4-yl)imidazo[1,2-a]pyrimidin-2-yl] phenol], the Kd lay within 500 to 2500 nM.

As for `CN1CC2CCC(C1)N2c1cnc2nc(-c3ccccc3O)cn2c1` [BRM15, 2-[6-(3-methyl-3,8-diazabicyclo[3.2.1]octan-8-yl)imidazo[1,2-a]pyrimidin-2-yl] phenol], the dissociation constant Kd lay in the range of 2500 to 10000 nM.

As to `CN1CCN(c2cc(N)nc3nc(-c4ccccc4O)cn23)CC1` [BRM7], the Kd is no less than 10000 nM.

Consider `Cn1cc(-c2cc(N)nc3nc(-c4ccccc4O)cn23)cn1` [BRM8], for which the Kd is no less than 10000 nM.

Regarding `Nc1nc2nc(-c3ccccc3O)cn2cc1C#Cc1ccncc1` [BRM5], the dissociation constant Kd was in the range of 2500 to 10000 nM.

With `Oc1ccccc1-c1cn2cccnc2n1` [BRM1], the dissociation constant Kd fell in the range of 500 to 2500 nM.

`Nc1cc(C#Cc2ccncc2)n2cc(-c3ccccc3O)nc2n1` [BRM9]: the equilibrium dissociation constant (Kd) is no less than 10000 nM.

Take `Oc1ccccc1-c1cn2cc(C#Cc3ccncc3)cnc2n1` [BRM11]: the Kd was no less than 10000 nM.

Take `Cn1cc(-c2cn3cc(-c4ccccc4O)nc3nc2N)cn1` [BRM18, 2-[7-amino-6-(1-methylpyrazol-4-yl)imidazo[1,2-a]pyrimidin-2-yl]phenol]: the dissociation constant (Kd) was less than 500 nM.

As for `CN1C2CCC1CN(c1cc(N)nc3nc(-c4ccccc4O)cn13)C2` [BRM10], the Kd was no less than 10000 nM.

Take `COC/C=C/c1cnc2nc(-c3ccccc3O)cn2c1` [BRM17, 2-[6-[(E)-3-methoxyprop-1-enyl]imidazo[1,2-a]pyrimidin-2-yl]phenol]: the Kd was in the range of 2500 to 10000 nM.

Regarding `Oc1ccn2cc(-c3ccccc3O)nc2n1` [BRM4, 2-(2-hydroxyphenyl) imidazo[1,2-a]pyrimidin-7-ol trifluoroacetate], the dissociation constant (Kd) is no less than 10000 nM.

`COCCOCC#Cc1cn2cc(-c3ccccc3O)nc2nc1N` [BRM13]: the equilibrium dissociation constant (Kd) was less than 500 nM.

Consider `CN1CCN(c2cnc3nc(-c4ccccc4O)cn3c2)CC1` [BRM14, 2-[6-(4-methylpiperazin-1-yl)imidazo[1,2-a]pyrimidin-2-yl]phenol], for which the Kd lay in the range of 500 to 2500 nM.
